Data reported in publication PMC8443589, “Modelling human liver fibrosis in the context of non-alcoholic steatohepatitis using a microphysiological system” (Communications Biology, 2021).

Test system: liver MPS NASH model (PHH, KC and HSC co-cultures)
Test: Cue study: secreted cytokines and chemokines (Luminex) with varying NPC number and added cues (Fig 5a, 5b)
Assay type: cell-based, human
Settings: Fat media + cue
Text: There is only limited understanding of the pathogenic drivers of NASH and their interaction, principally due to a lack of translational models that are amenable to detailed molecular analysis[2],[34]. Here, a systems biology ‘cue-signal-analysis’ paradigm[35],[36] was utilised to produce large factorial datasets to enable the identification of molecular pathways of importance. […] To create varying set ups of the NASH microtissues we created hepatocyte microtissues in the MPS with high numbers of NPC (60,000 KC and HSC—equivalent to 10% of microtissue population) and low numbers of NPCs (6000 KC and HSC—equivalent to 1% of microtissue), representing physiological and non-physiological cell ratios respectively. Next, we took these different microtissues and cultured them in media with or without FFA. Finally, we supplemented the media with lipopolysaccharide (LPS), TGFβ, fructose or cholesterol either as single ‘cues’, in pairs or all together (Fig. 4a). ‘Cues’ were selected for clinical association with NASH. LPS, is a pleiotropic inflammatory molecule, it is proposed to reach the liver via the hepatic portal vein after release from the gastrointestinal tract, contributing to disease progression[37],[38]. TGFβ has been extensively studied in relation to fibrosis due to its regulation of genes controlling collagen and matrix-modifying enzymes. Fructose is a key substrate for de-novo lipogenesis, a process that has been identified as a key event in lipid accumulation within NAFLD patients. Finally, cholesterol accumulation has also been linked to NASH disease aetiology.
Assessment of gene expression changes was supplemented by assessment of the secretome produced by NASH microtissues in the MPS after exposure to the various cues. Increased pro-inflammatory cytokine secretion is a defining characteristic in NASH patients, so we conducted a Luminex cytokine array covering 42 different biomarkers, cytokines and chemokines secreted into the culture media of the different microtissues at multiple time points. […]

TGF-β
EGF relative expression (z-transformation) (Day 6): -0.6947
Eotaxin relative expression (z-transformation) (Day 6): -0.9288
FGF-2 relative expression (z-transformation) (Day 6): 0.0308
Fit-3L relative expression (z-transformation) (Day 6): -0.07468
Fractalkine relative expression (z-transformation) (Day 6): -0.6368
G-CSF relative expression (z-transformation) (Day 6): 0.1243
GRO relative expression (z-transformation) (Day 6): -0.2928
IFN-a2 relative expression (z-transformation) (Day 6): 0.07826
IL-1RA relative expression (z-transformation) (Day 6): -0.2716
IL-4 relative expression (z-transformation) (Day 6): -0.7382
IL-6 relative expression (z-transformation) (Day 6): 0.4237
IL-7 relative expression (z-transformation) (Day 6): -0.09812
IL-8 relative expression (z-transformation) (Day 6): 0.2731
IL-15 relative expression (z-transformation) (Day 6): 0.3864
IP-10 relative expression (z-transformation) (Day 6): -0.5991
MCP-1 relative expression (z-transformation) (Day 6): -0.1254
MCP-3 relative expression (z-transformation) (Day 6): -0.3354
MDC relative expression (z-transformation) (Day 6): 1.089
MIP-1a relative expression (z-transformation) (Day 6): -0.3189
MIP-1b relative expression (z-transformation) (Day 6): -0.5904
TNFa relative expression (z-transformation) (Day 6): -0.3323
VEGF relative expression (z-transformation) (Day 6): 0.1644
EGF relative expression (z-transformation) (Day 11): 0.4971
Eotaxin relative expression (z-transformation) (Day 11): -0.7902
FGF-2 relative expression (z-transformation) (Day 11): 1.282
Fit-3L relative expression (z-transformation) (Day 11): -1.046
Fractalkine relative expression (z-transformation) (Day 11): 0.2445
G-CSF relative expression (z-transformation) (Day 11): 1.379
GM-CSF relative expression (z-transformation) (Day 11): -0.7569
GRO relative expression (z-transformation) (Day 11): -0.05931
IFN-a2 relative expression (z-transformation) (Day 11): -0.7423
IL-1RA relative expression (z-transformation) (Day 11): 1.044
IL-4 relative expression (z-transformation) (Day 11): 2.047
IL-6 relative expression (z-transformation) (Day 11): -0.4878
IL-7 relative expression (z-transformation) (Day 11): 0.613
IL-8 relative expression (z-transformation) (Day 11): 1.674
IL-15 relative expression (z-transformation) (Day 11): 1.1283
IP-10 relative expression (z-transformation) (Day 11): -0.5014
MCP-1 relative expression (z-transformation) (Day 11): -0.1617
MCP-3 relative expression (z-transformation) (Day 11): 1.036
MDC relative expression (z-transformation) (Day 11): -0.8939
MIP-1a relative expression (z-transformation) (Day 11): -0.2467
MIP-1b relative expression (z-transformation) (Day 11): -0.2666
TNFa relative expression (z-transformation) (Day 11): -0.5851
VEGF relative expression (z-transformation) (Day 11): 0.04572
EGF relative expression (z-transformation) (Day 14): -0.7709
Eotaxin relative expression (z-transformation) (Day 14): -0.8142
FGF-2 relative expression (z-transformation) (Day 14): -0.6405
Fit-3L relative expression (z-transformation) (Day 14): -1.202
Fractalkine relative expression (z-transformation) (Day 14): -0.4453
G-CSF relative expression (z-transformation) (Day 14): 2.694
GM-CSF relative expression (z-transformation) (Day 14): -0.9022
GRO relative expression (z-transformation) (Day 14): -0.07849
IFN-a2 relative expression (z-transformation) (Day 14): 0.3354
IL-1RA relative expression (z-transformation) (Day 14): 0.4791
IL-4 relative expression (z-transformation) (Day 14): 0.3542
IL-6 relative expression (z-transformation) (Day 14): -0.7405
IL-7 relative expression (z-transformation) (Day 14): -0.2291
IL-8 relative expression (z-transformation) (Day 14): 1.963
IL-15 relative expression (z-transformation) (Day 14): 1.049
IP-10 relative expression (z-transformation) (Day 14): -0.2731
MCP-1 relative expression (z-transformation) (Day 14): -0.3727
MCP-3 relative expression (z-transformation) (Day 14): 1.8775
MDC relative expression (z-transformation) (Day 14): -0.4908
MIP-1a relative expression (z-transformation) (Day 14): -0.1191
MIP-1b relative expression (z-transformation) (Day 14): -0.282
TNFa relative expression (z-transformation) (Day 14): -0.5429
VEGF relative expression (z-transformation) (Day 14): -0.6644
